Laboratory results: the supplement of paper PMC10307832

Assays:
Assay in all cases: relative viability (nuclei count vs DMSO), 5 days (fraction); higher = more cells survive
NCI-H2342 = test system: NCI-H2342
Method in brief: (§1)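 Lung cancer cell lines in 1536-well plates got either a single drug or a fixed anchor-drug dose together with five library-drug doses (not always all listed) in √10 steps, by pin tool, on the day after seeding. Nuclei were counted after 5 days, and relative viability is the treated-to-vehicle ratio of nuclei counts. Values are medians of duplicate plates.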

NCI-H1437 = test system: NCI-H1437
Method in brief: as §1

NCI-H596 = test system: NCI-H596
Method in brief: as §1

NCI-H1299 = test system: NCI-H1299
Method in brief: as §1

NCI-H1623 = test system: NCI-H1623
Method in brief: as §1

EBC-1 = test system: EBC-1
Method in brief: as §1

NCI-H1355 = test system: NCI-H1355
Method in brief: as §1

A549 = test system: A549
Method in brief: as §1

NCI-H1703 = test system: NCI-H1703
Method in brief: as §1

Calu-6 = test system: Calu-6
Method in brief: as §1

LCLC-97TM1 = test system: LCLC-97TM1
Method in brief: as §1

IA-LM = test system: IA-LM
Method in brief: as §1

## Cc1csc(=NC2CCCCC2)n1/N=C/c1ccc(O)c(O)c1O [MIM1] + COc1cc2c(Oc3ccc(NC(=O)C4(C(=O)Nc5ccc(F)cc5)CC4)cc3F)ccnc2cc1OCCCN1CCOCC1 [Foretinib] (partner 0.25 µM)
NCI-H2342; first compound 0.2 µM
  relative viability: 1.25
NCI-H2342; first compound 0.6325 µM
  relative viability: 0.952
NCI-H2342; first compound 2 µM
  relative viability: 1.07
NCI-H2342; first compound 6.325 µM
  relative viability: 0.952
NCI-H2342; first compound 20 µM
  relative viability: 1.11
NCI-H1437; first compound 0.2 µM
  relative viability: 1.24
NCI-H1437; first compound 0.6325 µM
  relative viability: 1.34
NCI-H1437; first compound 2 µM
  relative viability: 1.19
NCI-H1437; first compound 6.325 µM
  relative viability: 1.1
NCI-H1437; first compound 20 µM
  relative viability: 0.243
NCI-H596; first compound 0.2 µM
  relative viability: 0.886
NCI-H596; first compound 0.6325 µM
  relative viability: 0.741
NCI-H596; first compound 2 µM
  relative viability: 0.858
NCI-H596; first compound 6.325 µM
  relative viability: 0.848
NCI-H596; first compound 20 µM
  relative viability: 0.636
NCI-H1299; first compound 0.2 µM
  relative viability: 1.15
NCI-H1299; first compound 0.6325 µM
  relative viability: 1.09
NCI-H1299; first compound 2 µM
  relative viability: 1.14
NCI-H1299; first compound 6.325 µM
  relative viability: 1.06
NCI-H1299; first compound 20 µM
  relative viability: 1.06
NCI-H1623; first compound 0.2 µM
  relative viability: 0.88
NCI-H1623; first compound 0.6325 µM
  relative viability: 0.721
NCI-H1623; first compound 2 µM
  relative viability: 0.914
NCI-H1623; first compound 6.325 µM
  relative viability: 0.718
NCI-H1623; first compound 20 µM
  relative viability: 0.409
EBC-1; first compound 0.2 µM
  relative viability: 0.108
EBC-1; first compound 0.6325 µM
  relative viability: 0.102
EBC-1; first compound 2 µM
  relative viability: 0.119
EBC-1; first compound 6.325 µM
  relative viability: 0.106
EBC-1; first compound 20 µM
  relative viability: 0.119
NCI-H1355; first compound 0.2 µM
  relative viability: 0.911
NCI-H1355; first compound 0.6325 µM
  relative viability: 0.885
NCI-H1355; first compound 2 µM
  relative viability: 0.976
NCI-H1355; first compound 6.325 µM
  relative viability: 0.87
NCI-H1355; first compound 20 µM
  relative viability: 0.629
A549; first compound 0.2 µM
  relative viability: 0.917
A549; first compound 0.6325 µM
  relative viability: 0.939
A549; first compound 2 µM
  relative viability: 1.02
A549; first compound 6.325 µM
  relative viability: 0.771
A549; first compound 20 µM
  relative viability: 0.144
NCI-H1703; first compound 0.2 µM
  relative viability: 0.417
NCI-H1703; first compound 0.6325 µM
  relative viability: 0.391
NCI-H1703; first compound 2 µM
  relative viability: 0.375
NCI-H1703; first compound 6.325 µM
  relative viability: 0.296
NCI-H1703; first compound 20 µM
  relative viability: 0.181
Calu-6; first compound 0.2 µM
  relative viability: 0.847
Calu-6; first compound 0.6325 µM
  relative viability: 0.894
Calu-6; first compound 2 µM
  relative viability: 0.816
Calu-6; first compound 6.325 µM
  relative viability: 0.797
Calu-6; first compound 20 µM
  relative viability: 0.318
LCLC-97TM1; first compound 0.2 µM
  relative viability: 0.92
LCLC-97TM1; first compound 0.6325 µM
  relative viability: 1.08
LCLC-97TM1; first compound 2 µM
  relative viability: 0.888
LCLC-97TM1; first compound 6.325 µM
  relative viability: 0.611
LCLC-97TM1; first compound 20 µM
  relative viability: 0.259
IA-LM; first compound 0.2 µM
  relative viability: 1.11
IA-LM; first compound 0.6325 µM
  relative viability: 1.29
IA-LM; first compound 2 µM
  relative viability: 1.28
IA-LM; first compound 6.325 µM
  relative viability: 0.842
IA-LM; first compound 20 µM
  relative viability: 0.476

## CN1CCN(CCOc2cc(OC3CCOCC3)c3c(Nc4c(Cl)ccc5c4OCO5)ncnc3c2)CC1 [Saracatinib] + COc1cc2c(Oc3ccc(NC(=O)C4(C(=O)Nc5ccc(F)cc5)CC4)cc3F)ccnc2cc1OCCCN1CCOCC1 [Foretinib] (partner 0.25 µM)
NCI-H2342; first compound 0.02 µM
  relative viability: 0.84
NCI-H2342; first compound 0.2 µM
  relative viability: 0.856
NCI-H2342; first compound 0.6325 µM
  relative viability: 1.11
NCI-H2342; first compound 2 µM
  relative viability: 0.925
NCI-H1437; first compound 0.02 µM
  relative viability: 1.27
NCI-H1437; first compound 0.2 µM
  relative viability: 1.22
NCI-H1437; first compound 0.6325 µM
  relative viability: 1.3
NCI-H1437; first compound 2 µM
  relative viability: 1.3
NCI-H596; first compound 0.02 µM
  relative viability: 0.874
NCI-H596; first compound 0.2 µM
  relative viability: 0.641
NCI-H596; first compound 0.6325 µM
  relative viability: 0.826
NCI-H596; first compound 2 µM
  relative viability: 0.591
NCI-H1299; first compound 0.02 µM
  relative viability: 1.11
NCI-H1299; first compound 0.2 µM
  relative viability: 1.08
NCI-H1299; first compound 0.6325 µM
  relative viability: 1.21
NCI-H1299; first compound 2 µM
  relative viability: 1.14
NCI-H1623; first compound 0.02 µM
  relative viability: 0.876
NCI-H1623; first compound 0.2 µM
  relative viability: 0.723
NCI-H1623; first compound 0.6325 µM
  relative viability: 0.908
NCI-H1623; first compound 2 µM
  relative viability: 0.681
EBC-1; first compound 0.02 µM
  relative viability: 0.0938
EBC-1; first compound 0.2 µM
  relative viability: 0.111
EBC-1; first compound 0.6325 µM
  relative viability: 0.108
EBC-1; first compound 2 µM
  relative viability: 0.106
NCI-H1355; first compound 0.02 µM
  relative viability: 0.965
NCI-H1355; first compound 0.2 µM
  relative viability: 0.991
NCI-H1355; first compound 0.6325 µM
  relative viability: 1.1
NCI-H1355; first compound 2 µM
  relative viability: 0.934
A549; first compound 0.02 µM
  relative viability: 0.864
A549; first compound 0.6325 µM
  relative viability: 0.8
A549; first compound 2 µM
  relative viability: 0.841
NCI-H1703; first compound 0.02 µM
  relative viability: 0.38
NCI-H1703; first compound 0.2 µM
  relative viability: 0.319
NCI-H1703; first compound 0.6325 µM
  relative viability: 0.251
NCI-H1703; first compound 2 µM
  relative viability: 0.259
Calu-6; first compound 0.02 µM
  relative viability: 0.813
Calu-6; first compound 0.2 µM
  relative viability: 0.579
Calu-6; first compound 0.6325 µM
  relative viability: 0.684
Calu-6; first compound 2 µM
  relative viability: 0.581
LCLC-97TM1; first compound 0.02 µM
  relative viability: 1.06
LCLC-97TM1; first compound 0.2 µM
  relative viability: 0.763
LCLC-97TM1; first compound 0.6325 µM
  relative viability: 0.96
LCLC-97TM1; first compound 2 µM
  relative viability: 0.825
IA-LM; first compound 0.02 µM
  relative viability: 1.13
IA-LM; first compound 0.2 µM
  relative viability: 1.28
IA-LM; first compound 0.6325 µM
  relative viability: 1.01
IA-LM; first compound 2 µM
  relative viability: 0.912
